Results taken from paper PMC9405123, “Design, Synthesis and Mechanistic Studies of Novel Isatin-Pyrazole Hydrazone Conjugates as Selective and Potent Bacterial MetAP Inhibitors” (Antibiotics, 2022).
≈ marks a conversion by molar mass, not a printed value.

What was measured:
K. pneumoniae [1] = assay: Growth inhibition screening (broth dilution); assay type: cell-based, Klebsiella pneumonia
Outline: (§1)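 Standard NCCLS broth dilution in nutrient broth, with compounds dissolved in DMSO and tested at a final 250 µg/mL per well. About 2.5 × 10^5 cells/mL were inoculated and incubated overnight at 37 °C. Growth was read as culture turbidity at 590 nm.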

LG1 = assay: MIC on environmental MDR isolate (microdilution)
LG71 = assay: MIC on environmental MDR isolate (microdilution); details: isolate LG71 Enterobacter cloacae
E. faecalis = assay: Time-kill curve assay; assay type: cell-based, Enterococcus faecalis
Method: A time–kill curve study was performed against bacterial strains (E. coli, E. faecalis, K. pneumonia and P. aeruginosa) to determine whether compound PS9 is bactericidal or bacteriostatic. MIC, 2MIC and 4MIC concentrations were employed for the time–kill assay as explained by Ali et al.. Untreated bacterial cells were used as a control. 100 µL aliquot was taken from each flask at regular intervals. An aliquot was further diluted in phosphate buffer saline solution and from each concentration 50 µL aliquot was inoculated on a nutrient agar plate and spread. Colonies were counted after the incubation of the plate at 37 °C. For each strain, the average (mean) colony count data (log10 CFU/mL) was plotted against time.

S. aureus 33,591 = assay: In vivo antibacterial efficacy in infected larvae; details: PS9 1000 μg/mL 30 min post-infection, up to 72 h
LG33 = assay: MIC on environmental MDR isolate (microdilution); details: Enterobacter
SH28 = assay: MIC on environmental MDR isolate (microdilution); details: Aeromonas caviae
S. aureus [2] = assay: Combination study with AMP or CIP
JST61 = assay: MIC on environmental MDR isolate (microdilution); details: Pantoea agglomerans
G. mellonella larvae = assay: In vivo toxicological assessment, larval survival; parameters: species or system Galleria mellonella; details: 100, 250, 500, 750 and 1000 μg/mL; up to 5 days
Method: The objective of this experiment was to assess the in vivo toxicity of PS9 using larvae of G. mellonella. […] The results obtained using Galleria larvae show a strong correlation to those generated using mammals and larvae have the advantage of producing results within 48 h, being inexpensive to purchase and house, and being free from the legal and ethical restrictions that affect mammalian testing. Larvae can also be used to assess toxicity and there is a strong correlation between the toxicity of compounds in larvae and mammals.
PS9 stock solutions were prepared in DMSO (≤10%) and deionized water and maintained at room temperature.
The greater wax G. mellonella sixth instar larvae were purchased from Live foods Direct Ltd. Sheffield, UK, and kept in the dark at 15 °C to suspend pupation. Healthy larvae with no appearance of melanization and weighing 150–250 mg were selected and stored in sterile nine cm Petri dishes containing wood shavings.

HK32 [3] = assay: MIC on environmental MDR isolate (microdilution); details: Enterobacter cloacae
K. pneumoniae [4] = assay: Combination study with AMP or CIP
E. coli [5] = assay: Minimum bactericidal concentration; assay type: cell-based, Escherichia coli
E. coli [6] = assay: Growth inhibition screening (broth dilution); assay type: cell-based, Escherichia coli
Outline: as §1

Cytotoxicity assay (MTT) = assay type: cell-based; details: human, HEK293 cells, read-out: viable HEK293 cells
Method: PS9 was tested for cytotoxicity against human embryonic kidney (HEK293) cells using a colorimetric MTT assay. HEK293 cells were grown at 37 °C in a humidified environment of 5% CO2 in DMEM media enriched with 10% FBS and 1% penicillin, streptomycin solution. HEK293 cells (1 × 10^4) were seeded in triplicate and incubated overnight in a CO2 incubator. After the treatment (5–200 μM) with PS9, the cells were kept for 48 h at 37 °C. Freshly prepared 5 mg/mL MTT was supplied to the samples and kept on incubation at 37 °C for 4–5 h. DMSO was added to solubilize the formazan crystals. A microplate reader (Bio-Rad, Hercules, CA, USA) was used for taking absorbance at 570 nm and all the experiments were done in triplicate.

HK41 = assay: MIC on environmental MDR isolate (microdilution); details: Enterobacter cloacae
EfMetAP1a = EfMetAP1a (Enterococcus faecalis, UniProt Q832M5); assay: MetAP enzyme inhibition, Morrison Ki (Met-AMC fluorescence); assay type: biochemical; details: Morrison Ki method
E. coli [7] = assay: Growth kinetics; assay type: cell-based, Escherichia coli
Method: (§2) Bacterial strains were tested as mentioned in Habib et al.. Briefly, ½ MIC, MIC and 2MIC values of PS9 were taken to assess the growth of bacterial strains whereas untreated cells and media were taken as positive and negative control, respectively.

S. aureus [8] = assay: Minimum bactericidal concentration; assay type: cell-based, Staphylococcus aureus
JST68 = assay: MBC on environmental MDR isolate; details: Escherichia coli
P. aeruginosa = assay: Growth kinetics; assay type: cell-based, Pseudomonas aeruginosa
Method: as §2

HK32 [9] = assay: MBC on environmental MDR isolate; details: Enterobacter cloacae

Sequence of EfMetAP1a (Q832M5 entry or part of it): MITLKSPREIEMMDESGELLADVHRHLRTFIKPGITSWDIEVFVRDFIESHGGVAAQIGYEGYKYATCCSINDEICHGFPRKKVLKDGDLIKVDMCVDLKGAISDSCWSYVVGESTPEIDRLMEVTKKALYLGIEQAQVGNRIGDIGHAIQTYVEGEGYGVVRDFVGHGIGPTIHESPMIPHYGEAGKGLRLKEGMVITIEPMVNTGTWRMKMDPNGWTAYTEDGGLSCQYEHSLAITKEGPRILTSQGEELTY

In the case of `O=C1Nc2ccc(F)cc2/C1=N\NC(=O)c1cc(-c2cccc(Br)c2)n[nH]1` [PS9, (E)-3-(3-Bromophenyl)-N′-(5-Fluoro-2-Oxoindolin-3-Ylidene)-1H-Pyrazole-5-Carbohydrazide], the inhibition at 250 µg/mL (K. pneumoniae [1]; Klebsiella pneumoniae) is reported as ≥ 94%, the “% Growth Inhibition at 250 µg/mL” value (K. pneumoniae [1]; listed as C00009) is reported as 94% and the MIC (LG1) is reported as 32 µg/mL (≈ 74.7 µM). For the same molecule, the MIC (LG71; Enterobacter cloacae) was 1020 µg/mL (≈ 2390 µM), the MIC (LG71) was >1024 µg/mL and the “killing (log10 CFU/mL with time)” value (E. faecalis; 4MIC, after 16 h) was “significant eradication”. The “killing (log10 CFU/mL with time)” value (E. faecalis; MIC, till 16 h) was “no 100% eradication”, the “effect on death of infected larvae” value (S. aureus 33,591) was “does not delay this” and the MIC (LG33) was 1000 µg/mL (≈ 2340 µM). The MIC (SH28) was 128 µg/mL (≈ 299 µM), the “MIC in Combination” value (S. aureus [2]; combination PS9 + AMP) was 4 µg/mL and the “MIC in Combination” value (S. aureus [2]; combination PS9 + CIP) was 8 µg/mL. It also gave an FICI (S. aureus [2]; combination with AMP) of 0.37, an FICI (S. aureus [2]; combination with CIP) of 0.28 and an MIC (JST61) of 1000 µg/mL (≈ 2340 µM). The larval survival (G. mellonella larvae) was 100%, the MIC (HK32 [3]) was 64 µg/mL (≈ 149 µM) and the “MIC in Combination” value (K. pneumoniae [4]; combination PS9 + AMP) was 2 µg/mL. For the same molecule, the “MIC in Combination” value (K. pneumoniae [4]; combination PS9 + CIP) was 4 µg/mL, the FICI (K. pneumoniae [4]; combination with AMP) was 0.50 and the FICI (K. pneumoniae [4]; combination with CIP) was 0.50. For the same molecule, the “MBC/MIC Ratio (R*)” value (E. coli [5]) was 4, the MBC (E. coli [5]; Escherichia coli) was 64 µg/mL (≈ 149 µM) and the inhibition at 250 µg/mL (E. coli [6]; Escherichia coli) was ≥ 94%. For the same molecule, the “% Growth Inhibition at 250 µg/mL” value (E. coli [6]; listed as C00009) was 100%, the viability at 48 h, 100 µg/mL (Cytotoxicity assay (MTT); 100 µg/mL) was > 90% and the viability at 48 h (Cytotoxicity assay (MTT); up to 200 µg/mL) was > 75%. For the same molecule, the MIC (HK41) was 32 µg/mL (≈ 74.7 µM), the Ki (EfMetAP1a) was 6.93 ± 0.45 µM and the growth (E. coli [7]; 2MIC and MIC) was “no growth observed up to 24 h”. For the same molecule, the “time after inoculation at which log phase was observed” value (E. coli [7]; ½ MIC) was 6 h, the “MBC/MIC Ratio (R*)” value (S. aureus [8]) was 8 and the MBC (S. aureus [8]; Staphylococcus aureus) was 256 µg/mL (≈ 598 µM). The MBC (JST68) was 256 µg/mL (≈ 598 µM), the growth (P. aeruginosa; 2MIC and MIC) was “no growth observed up to 24 h” and the “time after inoculation at which log phase was observed” value (P. aeruginosa; ½ MIC) was 8 h. The MBC (HK32 [9]) was 64 µg/mL (≈ 149 µM).
